According to paper PMC4658230 (Toxicology, 2015):
Like-named read-outs stand apart in the source and are kept apart here.

Tests used:
erCYP2E1 [1] = target: T1, erCYP2E1 (Rattus norvegicus, UniProt P05182); details: microsomes 0.5 mg/mL, methanol only
mtCYP2E1 [2] = target: T2, mtCYP2E1 (Rattus norvegicus, UniProt P05182); details: mitochondria 2 mg/mL, methanol only
erCYP2E1 [3] = target: T1, erCYP2E1; assay: Steady-state kinetics of substrate oxidation by rat liver microsomes; details: for Preferred Mechanism: rat liver microsomes, best of six steady-state mechanisms (DynaFit)
mtCYP2E1 [4] = target: T2, mtCYP2E1; details: for Preferred Mechanism: rat liver mitochondria, best of six steady-state mechanisms (DynaFit)
[5] = more recent studies of industrial workers; ref Bonanni et al. 2015; cited from earlier work
erCYP2E1 [6] = target: T1, erCYP2E1; details: equal CYP2E1 levels in each compartment assumed
mtCYP2E1 [7] = target: T2, mtCYP2E1; details: low concentration (10 μM); equal CYP2E1 levels in each compartment assumed
[8] = rat liver microsomes 0.5 mg/mL, 1 mM NADPH, 37°C, pH 7.4

T2 sequence (P05182 2-493 limits assumed): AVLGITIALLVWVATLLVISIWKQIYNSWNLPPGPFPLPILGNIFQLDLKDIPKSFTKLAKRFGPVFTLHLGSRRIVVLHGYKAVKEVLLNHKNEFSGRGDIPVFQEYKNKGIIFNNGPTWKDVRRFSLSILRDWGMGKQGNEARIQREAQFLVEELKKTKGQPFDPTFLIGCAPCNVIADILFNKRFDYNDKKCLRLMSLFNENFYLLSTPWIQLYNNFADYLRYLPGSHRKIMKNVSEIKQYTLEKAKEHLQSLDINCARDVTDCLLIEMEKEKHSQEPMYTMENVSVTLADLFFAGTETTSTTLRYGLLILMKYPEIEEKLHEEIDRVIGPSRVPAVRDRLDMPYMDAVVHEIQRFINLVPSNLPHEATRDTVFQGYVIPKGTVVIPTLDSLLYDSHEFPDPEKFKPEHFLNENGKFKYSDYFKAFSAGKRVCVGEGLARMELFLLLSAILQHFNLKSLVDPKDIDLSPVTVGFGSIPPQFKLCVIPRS
T1 sequence (P05182 whole entry): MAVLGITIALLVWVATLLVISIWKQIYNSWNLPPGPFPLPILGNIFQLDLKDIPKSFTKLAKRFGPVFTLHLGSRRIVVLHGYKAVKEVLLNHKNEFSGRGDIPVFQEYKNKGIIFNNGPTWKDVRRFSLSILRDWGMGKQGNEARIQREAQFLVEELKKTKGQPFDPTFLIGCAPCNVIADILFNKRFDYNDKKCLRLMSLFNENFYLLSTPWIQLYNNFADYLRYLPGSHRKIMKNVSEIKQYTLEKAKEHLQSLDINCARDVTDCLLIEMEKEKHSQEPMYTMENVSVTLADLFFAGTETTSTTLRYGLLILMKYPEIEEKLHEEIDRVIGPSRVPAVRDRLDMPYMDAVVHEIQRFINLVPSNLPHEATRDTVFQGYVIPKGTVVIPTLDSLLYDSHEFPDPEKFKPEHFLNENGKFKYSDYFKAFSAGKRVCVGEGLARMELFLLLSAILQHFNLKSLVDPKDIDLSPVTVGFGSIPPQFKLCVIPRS

Compound	control (uninhibited) rate of substrate oxidation by erCYP2E1 (erCYP2E1 [1]; 50 μM substrate)	control (uninhibited) rate of substrate oxidation by erCYP2E1 (erCYP2E1 [1]; 500 μM substrate)	control (uninhibited) rate of substrate oxidation by mtCYP2E1 (mtCYP2E1 [2]; 50 μM substrate) [pmol/min/pmol CYP2E1]	control (uninhibited) rate of substrate oxidation by mtCYP2E1 (mtCYP2E1 [2]; 500 μM substrate) [pmol/min/pmol CYP2E1]	Kss (erCYP2E1 [3]; [8])	Preferred Mechanism (erCYP2E1 [3])	turnover rate of mtCYP2E1 lower than erCYP2E1 (mtCYP2E1 [4]; mtCYP2E1 versus erCYP2E1)	Preferred Mechanism (mtCYP2E1 [4])	styrene plasma levels [5] [µM]	kcat (erCYP2E1 [3]; [8])	kcat (mtCYP2E1 [4]; rat liver mitochondria 2 mg/mL, 1 mM NADPH, 37°C, pH 7.4)	percent of total metabolism through erCYP2E1 (erCYP2E1 [6]; high concentration (500 μM)) [%]	percent of total metabolism through erCYP2E1 (erCYP2E1 [6]; low concentration (10 μM))	percent of total metabolism through mtCYP2E1 (mtCYP2E1 [7])	binding of second molecule weaker than first binding event (erCYP2E1 [3]; erCYP2E1, rat liver microsomes) [fold]	rate of turnover of ternary complex higher than binary enzyme-substrate complex (erCYP2E1 [3]; erCYP2E1, rat liver microsomes)	kcat2 (erCYP2E1 [3]; [8])	turnover rate of mtCYP2E1 lower than microsomal enzyme (mtCYP2E1 [4]; versus erCYP2E1 after first substrate binding event) [fold]
O=[N+]([O-])c1ccc(O)cc1 [4-nitrophenol, reference compound]	290 pmol/min/pmol CYP2E1	1080 pmol/min/pmol CYP2E1	26	60	2000 (1600 to 2600) μM	Two-Site Model, ES active only	nine-fold	One-Site Model (Michaelis-Menten)										
C=Cc1ccccc1 [styrene]	310 pmol/min/mg	390 pmol/min/mg	54	76					0.06	630 (580 to 690) pmol/min/pmol CYP2E1	100 (96 to 110) pmol/min/pmol CYP2E1							
Nc1ccccc1 [aniline]	260 pmol/min/mg	1000 pmol/min/mg	28	58	54 (21 to 550) μM	Two-Site Model, ES and ESS active		One-Site Model (Michaelis-Menten)		500 (230 to 770) pmol/min/pmol CYP2E1		95	approximately 94%	about 6%	25	two-fold	1000 (970 to 1300) pmol/min/pmol CYP2E1	10
